Measurements reported in paper PMC11350787, “Antimicrobial Properties and Cytotoxicity of LL-37-Derived Synthetic Peptides to Treat Orthopedic Infections” (Antibiotics, 2024).
In brackets after ≈: the same amount, converted by molar mass. Values belong to the compound of their own block, whether it stands above or below them. Peptide text beside a SMILES is read from it.

Key:
[1] = system: S. epidermidis GOI1153754-03-14 (CI); assay: microbe, parasite or virus in culture
Description: (§1) A total of 18 bacterial strains relevant to orthopedic infections were used for microbiological tests, including 8 ATCC (American Type Culture Collection, ATCC, Manassas, VA, USA) and 10 clinical isolates (CI) from the Laboratory of Clinical Chemistry and Microbiology, IRCCS Ospedale Galeazzi–Sant’Ambrogio of Milan (Italy) strain collection. The ATCC strains were used for the first screening (MIC/MBC) of all the AMPs produced, while the clinical isolates were used for further MIC/MBC assays on selected AMPs. Among CI, S. epidermidis GOI1153754-03-14 has been already characterized and used in previous studies. All the strains were stocked at −80°C and working stocks were stored at −20 °C. At the occurrence, the bacteria were resuscitated in Brain Hearth Infusion (BHI, Millipore, Milan, Italy) broth at 37 °C for 18 h from the working stocks.
(§2) To determine the minimum inhibitory concentration (MIC) and the minimum bactericidal concentration (MBC), ISO20776-1 and Clinical and Laboratory Standards Institute guidelines were followed. A commercial synthetic LL-37 (Aurogene, Rome, Italy) was used as the control in the MIC and MBC assays. A stock solution of each AMP was prepared at 600 µg/mL to achieve a final concentration of 300 µg/mL. […] The MIC was determined according to the aforementioned standard guidelines. The MBC was determined by plating 2 µL of culture from each well of the MIC plates on a Tryptic Soy Agar (TSA, Millipore, Milan, Italy) plate and incubated for 24 h at 37 °C. The concentration at which there was no growth was recorded as MBC. Each experiment was carried out in triplicate. Representative MIC and MBC values for vancomycin and gentamicin were assessed to offer a benchmark comparison for the AMPs. Quality control was conducted with Staphylococcus aureus ATCC 29,213 and vancomycin according to EUCAST guidelines.

[2] = system: S. aureus ATCC 43300; assay: microbe, parasite or virus in culture
Description: as §1, §2

[3] = system: E. coli ATCC 25922; assay: microbe, parasite or virus in culture
Description: as §1, §2

[4] = system: S. aureus ATCC 25923; assay: microbe, parasite or virus in culture
Description: as §1, §2

[5] = system: P. aeruginosa ATCC 27853; assay: microbe, parasite or virus in culture
Description: as §1, §2

[6] = system: S. epidermidis ATCC 35984; assay: microbe, parasite or virus in culture
Description: as §1, §2

[7] = system: S. aureus ATCC 49230; assay: microbe, parasite or virus in culture
Description: as §1, §2

[8] = system: S. epidermidis ATCC 14990; assay: microbe, parasite or virus in culture
Description: as §1, §2

[9] = system: P. aeruginosa Pae2 (CI); conditions: P. aeruginosa Pae2 clinical isolate; triplicate
Description: as §1, §2

[10] = system: S. aureus Sau89 (CI); conditions: S. aureus Sau89 clinical isolate; triplicate
Description: as §1, §2

[11] = system: E. coli Eco75 (CI); conditions: E. coli Eco75 clinical isolate; triplicate
Description: as §1, §2

[12] = system: S. aureus Sau221 (CI); conditions: S. aureus Sau221 clinical isolate; triplicate
Description: as §1, §2

[13] = system: P. aeruginosa Pae82 (CI); conditions: P. aeruginosa Pae82 clinical isolate; triplicate
Description: as §1, §2

[14] = system: E. coli Eco53 (CI); conditions: E. coli Eco53 clinical isolate; triplicate
Description: as §1, §2

[15] = system: E. coli Eco61 (CI); conditions: E. coli Eco61 clinical isolate; triplicate
Description: as §1, §2

[16] = system: P. aeruginosa Pae61 (CI); conditions: P. aeruginosa Pae61 clinical isolate; triplicate
Description: as §1, §2

[17] = system: S. aureus Sau39 (CI); conditions: S. aureus Sau39 clinical isolate; triplicate
Description: as §1, §2

Susceptibility category by MIC (EUCAST clinical breakpoints tables, v. 14) ([1]; S. epidermidis GOI1153754-03-14): R
MIC ([1]; Staphylococcus epidermidis, read-out: Minimum Inhibitory Concentration (MIC)): > 20 µg/mL
Susceptibility category by MIC (EUCAST clinical breakpoints tables, version 14) ([2]; S. aureus 43,300 as printed in text): S
MIC ([2]; Staphylococcus aureus, ATCC43300, read-out: Minimum Inhibitory Concentration (MIC)): 0.6 µg/mL (≈ 1.26 µM)
Susceptibility category by MIC (EUCAST clinical breakpoints tables, v. 14) ([3]; E. coli 25922): S
MIC ([3]; Escherichia coli, ATCC25922, read-out: Minimum Inhibitory Concentration (MIC)): 0.6 µg/mL (≈ 1.26 µM)
Susceptibility category by MIC (EUCAST clinical breakpoints tables, v. 14) ([4]; S. aureus 25923): S
MIC ([4]; Staphylococcus aureus, ATCC25923, read-out: Minimum Inhibitory Concentration (MIC)): 0.6 µg/mL (≈ 1.26 µM)
Susceptibility category by MIC (EUCAST clinical breakpoints tables, v. 14) ([5]; P. aeruginosa 27853): S
MIC ([5]; Pseudomonas aeruginosa, ATCC27853, read-out: Minimum Inhibitory Concentration (MIC)): 0.6 µg/mL (≈ 1.26 µM)
SMILES: CNC(C)C1CCC(N)C(OC2C(N)CC(N)C(OC3OCC(C)(O)C(NC)C3O)C2O)O1 (stereo not shown) [Gen, gentamicin]
MBC ([1]; Staphylococcus epidermidis, read-out: Minimum Bactericidal Concentration (MBC)): > 20 µg/mL
MBC ([2]; Staphylococcus aureus, ATCC43300, 24 h, read-out: Minimum Bactericidal Concentration (MBC)): 2.5 µg/mL (≈ 5.23 µM)
MBC ([3]; Escherichia coli, ATCC25922, 24 h, read-out: Minimum Bactericidal Concentration (MBC)): 2.5 µg/mL (≈ 5.23 µM)
MBC ([4]; Staphylococcus aureus, ATCC25923, 24 h, read-out: Minimum Bactericidal Concentration (MBC)): 2.5 µg/mL (≈ 5.23 µM)
MBC ([5]; Pseudomonas aeruginosa, ATCC27853, 24 h, read-out: Minimum Bactericidal Concentration (MBC)): 2.5 µg/mL (≈ 5.23 µM)

Minimum Inhibitory Concentration (MIC) ([6]; ATCC 35984, 18 h): 37.50 µg/mL
Minimum Inhibitory Concentration (MIC) ([7]; ATCC 49230, 18 h): 75.00 µg/mL
Minimum Inhibitory Concentration (MIC) ([2]; ATCC 43300, 18 h): 150.00 µg/mL
Minimum Inhibitory Concentration (MIC) ([3]; ATCC 25922, 18 h): 75.00 µg/mL
Minimum Inhibitory Concentration (MIC) ([4]; ATCC 25923, 18 h): 150.00 µg/mL
Minimum Inhibitory Concentration (MIC) ([5]; ATCC 27853, 18 h): 150.00 µg/mL
Minimum Inhibitory Concentration (MIC) ([8]; ATCC 14990, 18 h): 18.75 µg/mL
SMILES: CC[C@H](C)[C@H](NC(=O)[C@H](CCCCN)NC(=O)[C@H](CCC(=O)O)NC(=O)[C@H](CCCCN)NC(=O)[C@@H](N)CO)C(=O)NCC(=O)N[C@@H](CCCCN)C(=O)N[C@@H](CCC(=O)O)C(=O)N[C@@H](Cc1ccccc1)C(=O)N[C@@H](CCCCN)C(=O)N[C@@H](CCCNC(=N)N)C(=O)N[C@H](C(=O)N[C@H](C(=O)N[C@@H](CCC(N)=O)C(=O)N[C@@H](CCCNC(=N)N)C(=O)N[C@H](C(=O)N[C@@H](CCCCN)C(=O)N[C@@H](CC(=O)O)C(=O)N[C@@H](Cc1ccccc1)C(=O)N[C@@H](CC(C)C)C(=O)N[C@@H](CCCNC(=N)N)C(=O)N[C@@H](CC(N)=O)C(=O)N[C@@H](CC(C)C)C(=O)N[C@H](C(N)=O)C(C)C)[C@@H](C)CC)C(C)C)[C@@H](C)CC [SK-24] (H-SKEKIGKEFKRIVQRIKDFLRNLV-NH2)
Minimum Bactericidal Concentration (MBC) ([6]; ATCC 35984, 24 h): 300.00 µg/mL
Minimum Bactericidal Concentration (MBC) ([7]; ATCC 49230, 24 h): >300.00 µg/mL
Minimum Bactericidal Concentration (MBC) ([2]; ATCC 43300, 24 h): >300.00 µg/mL
Minimum Bactericidal Concentration (MBC) ([3]; ATCC 25922, 24 h): 75.00 µg/mL
Minimum Bactericidal Concentration (MBC) ([4]; ATCC 25923, 24 h): >300.00 µg/mL
Minimum Bactericidal Concentration (MBC) ([5]; ATCC 27853, 24 h): 150.00 µg/mL
Minimum Bactericidal Concentration (MBC) ([8]; ATCC 14990, 24 h): 150.00 µg/mL

SMILES: CC[C@H](C)[C@H](NC(=O)[C@H](CCCCN)NC(=O)[C@H](CCC(=O)O)NC(=O)[C@H](CCCCN)NC(=O)[C@H](CO)NC(=O)[C@H](CCCCN)NC(=O)[C@H](CCCNC(=N)N)NC(=O)[C@H](Cc1ccccc1)NC(=O)[C@H](Cc1ccccc1)NC(=O)[C@H](CC(=O)O)NC(=O)CNC(=O)[C@H](CC(C)C)NC(=O)[C@@H](N)CC(C)C)C(=O)NCC(=O)N[C@@H](CCCCN)C(=O)N[C@@H](CCC(=O)O)C(=O)N[C@@H](Cc1ccccc1)C(=O)N[C@@H](CCCCN)C(=O)N[C@@H](CCCNC(=N)N)C(=O)N[C@H](C(=O)N[C@H](C(=O)N[C@@H](CCC(N)=O)C(=O)N[C@@H](CCCNC(=N)N)C(=O)N[C@H](C(=O)N[C@@H](CCCCN)C(=O)N[C@@H](CC(=O)O)C(=O)N[C@@H](Cc1ccccc1)C(=O)N[C@@H](CC(C)C)C(=O)N[C@@H](CCCNC(=N)N)C(=O)N[C@@H](CC(N)=O)C(=O)N[C@@H](CC(C)C)C(=O)N[C@H](C(=O)N1CCC[C@H]1C(=O)N[C@@H](CCCNC(=N)N)C(=O)N[C@H](C(=O)N[C@@H](CCC(=O)O)C(=O)N[C@@H](CO)C(=O)O)[C@@H](C)O)C(C)C)[C@@H](C)CC)C(C)C)[C@@H](C)CC [cLL-37, reference compound]
Minimum Bactericidal Concentration (MBC) ([1]; S. epidermidis GOI1153754-03-14 clinical isolate, triplicate): >300.00 µg/mL
Minimum Inhibitory Concentration (MIC) ([6]; S. epidermidis 35984, ISO20776-1/CLSI, triplicate): 9.38 µg/mL
Minimum Bactericidal Concentration (MBC) ([6]; S. epidermidis 35984, plated on TSA, 24 h 37 °C, triplicate): >300.00 µg/mL
Minimum Inhibitory Concentration (MIC) ([7]; S. aureus 49230, ISO20776-1/CLSI, triplicate): 75.00 µg/mL
Minimum Bactericidal Concentration (MBC) ([7]; S. aureus 49230, plated on TSA, 24 h 37 °C, triplicate): >300.00 µg/mL
Minimum Inhibitory Concentration (MIC) ([2]; S. aureus 43300, ISO20776-1/CLSI, triplicate): 75.00 µg/mL
Minimum Bactericidal Concentration (MBC) ([2]; S. aureus 43300, plated on TSA, 24 h 37 °C, triplicate): >300.00 µg/mL
Minimum Bactericidal Concentration (MBC) ([3]; E. coli 25922, plated on TSA, 24 h 37 °C, triplicate): 75.00 µg/mL
Minimum Inhibitory Concentration (MIC) ([4]; S. aureus 25923, ISO20776-1/CLSI, triplicate): 37.50 µg/mL
Minimum Bactericidal Concentration (MBC) ([4]; S. aureus 25923, plated on TSA, 24 h 37 °C, triplicate): >300.00 µg/mL
Minimum Inhibitory Concentration (MIC) ([5]; P. aeruginosa 27853, ISO20776-1/CLSI, triplicate): 37.50 µg/mL
Minimum Bactericidal Concentration (MBC) ([5]; P. aeruginosa 27853, plated on TSA, 24 h 37 °C, triplicate): 75.00 µg/mL
Minimum Bactericidal Concentration (MBC) ([8]; S. epidermidis 14990, 2 µL from MIC wells plated on TSA, 24 h 37 °C, triplicate): 75.00 µg/mL
Minimum Inhibitory Concentration (MIC) ([8]; S. epidermidis 14990, ISO20776-1/CLSI, triplicate): 75.00 µg/mL
Minimum Bactericidal Concentration (MBC) [9]: 75.00 µg/mL
Minimum Inhibitory Concentration (MIC) [9]: 75.00 µg/mL
Minimum Bactericidal Concentration (MBC) [10]: >300.00 µg/mL
Minimum Inhibitory Concentration (MIC) [10]: >300.00 µg/mL
Minimum Bactericidal Concentration (MBC) [11]: 300.00 µg/mL
Minimum Inhibitory Concentration (MIC) [11]: 37.50 µg/mL
Minimum Bactericidal Concentration (MBC) [12]: >300.00 µg/mL
Minimum Inhibitory Concentration (MIC) [12]: >300.00 µg/mL
Minimum Bactericidal Concentration (MBC) [13]: 75.00 µg/mL
Minimum Inhibitory Concentration (MIC) [13]: 37.50 µg/mL
Minimum Bactericidal Concentration (MBC) [14]: 300.00 µg/mL
Minimum Inhibitory Concentration (MIC) [14]: 37.50 µg/mL
Minimum Bactericidal Concentration (MBC) [15]: 75.00 µg/mL
Minimum Inhibitory Concentration (MIC) [15]: 37.50 µg/mL
Minimum Bactericidal Concentration (MBC) [16]: 150.00 µg/mL
Minimum Inhibitory Concentration (MIC) [16]: 37.50 µg/mL
Minimum Bactericidal Concentration (MBC) [17]: >300.00 µg/mL
Minimum Inhibitory Concentration (MIC) [17]: 150.00 µg/mL
